Source: ChEMBL document CHEMBL3507680, “University of Dundee, Gates Library screen for HepG2 cell viability”

Assay: Human HepG2 cell viability assay in 384 well format
Assay type: toxicity, cell-based
Parameters: dose 125 nL, time 70.5 hour; cytotoxicity at 70.5 h: concentration not given beside the values
Details: HepG2 cells, read-out: Inhibition

Row | Structure (SMILES) | cytotoxicity at 70.5 h
1 | Cc1ccc(-c2cn3c(n2)CO[C@@H](CNCc2cccnc2)C3)cc1 | 11%
2 | C[C@@H](NC(=O)c1cccnc1)c1onc(-c2ccccc2)c1C(=O)O | -4.96%
3 | CNC(=O)C(C)(C)N1CCC[C@H]1C(=O)NCC1CC1 | 9.57%
4 | c1ccc2c(Cc3nnc([C@H]4CCN(C5CCOCC5)C4)o3)c[nH]c2c1 | -0.535%
5 | CC(=O)N1CCOC[C@H](OCC(=O)N(C)C)C1 | 0.496%
6 | CN1CCN2C(=O)N(C3CCCCC3)C[C@H]2C1 | -5.56%
7 | Cc1ccc(CCN2C(=O)CC[C@H]3CN(Cc4cnn(C)c4)CC[C@H]32)o1 | -0.704%
8 | Cc1nc(-c2ccncc2)ncc1C(C)NC(=O)CN1CCCC1=O (centres undefined) | -5.92%
9 | Cc1nc(C)c(CC(=O)N2C[C@H]3CC[C@@H]2CN(c2cnccn2)C3)s1 | -4.55%
10 | Cc1ccc(N(CC(=O)NCc2nnc3n2CCC3)S(C)(=O)=O)cc1 | 5.02%
11 | O=C(c1ccc(S(=O)(=O)NCc2ccon2)cc1)N1CCOCC1 | 19.9%
12 | COc1ccc(CN2CCC(O)(CN3CCCCC3)C2)c(C)c1 (centres undefined) | -1.76%
13 | O=C(c1cccnc1)N1CCOC(CCCc2ccccc2)C1 (centres undefined) | 0.528%
14 | Cn1ncc(C2CC(=O)NCc3nc4ccccn4c32)c1C1CC1 (centres undefined) | -11.4%
15 | CC(C1CCN(Cc2c(Cl)cncc2Cl)CC1)N1CCN(C)CC1 (centres undefined) | 14.7%
16 | CN(C)C(=O)CN1C[C@@H]2CC[C@H](C1)N(Cc1c(F)cccc1Cl)C2 | -6.28%
17 | Cc1nccn1CCC1CCCCN1C(=O)c1ccc(N(C)C)cc1 (centres undefined) | -3.37%
18 | CN1C(=O)C(c2ccccc2)CC12CCN(CCN1CCCC1=O)CC2 (centres undefined) | 12.2%
19 | CCSc1ncc(CN2CCN(c3nc(C)ncc3C)CC2)cn1 | -11.5%
20 | O=C(NCc1nnc2n1CCC2)c1ccc(C2CCCO2)s1 (centres undefined) | -4.87%
21 | COC(=O)NCC(=O)N1CCC(c2nc3cc(F)ccc3[nH]2)CC1 | -2%
22 | Nc1nc2c(c(N3CCCC3)n1)CCN(Cc1ccccn1)CC2 | 8.7%

Row | Structure (SMILES) | cytotoxicity at 70.5 h
23 | CCCc1nnc(N2CCC(N3CCCC(O)C3)CC2)o1 (centres undefined) | 7.96%
24 | c1ccc(CCc2n[nH]c(C3CCOC3)n2)cc1 (centres undefined) | -10.1%
25 | CCc1nc(C)c(CN2CCOC(CCCC(C)C)C2)[nH]1 (centres undefined) | 27.1%
26 | COc1ccc(OC)c(-n2c(COC(C)C)n[nH]c2=O)c1 | -4.44%
27 | CCc1c(C(=O)N2C[C@H]3CC[C@@H]2CN(c2cnccn2)C3)csc1C | -6.26%
28 | COCC(=O)N1C[C@H]2CNC[C@@]2(C(=O)NCc2c(C)noc2C)C1 | -0.367%
29 | Cc1cc(C)nc(CN(C)C(=O)c2ccccc2C2CCNC2)c1 (centres undefined) | -5.21%
30 | COc1cccc(C(C(=O)O)N2CCCN(C3CCCC3)CC2)c1OC (centres undefined) | 20.1%
31 | CN(Cc1nccn1C)C(=O)c1cccc(CCC(C)(C)O)c1 | 7.23%
32 | Cc1nc(CNC(=O)c2cc(COc3cccc(F)c3)[nH]n2)n[nH]1 | 15.3%
33 | O=C(Nc1ccc(F)cc1)C1CNCCN1C(=O)CC1CCCCC1 (centres undefined) | 31.3%
34 | CCc1ocnc1C(=O)N1CCC2(CCCN(CC(C)(C)C)C2=O)C1 (centres undefined) | -6.31%
35 | COCCc1noc(-c2ccc(-c3ccc(N)nc3)nc2)n1 | -2.31%
36 | COc1ccccc1OC1CCN(Cc2ccc(N(C)C)nc2)CC1 | -6.85%
37 | OC1CCN(c2ccnc(NCCc3ccccc3Cl)n2)CC1 | -25.8%
38 | CC(=O)N[C@@H]1CN(Cc2nnc(-c3ccccc3)o2)C[C@H]1C(C)C | -16.1%
39 | CCn1cc(-c2cc(-c3cc(CC(=O)O)cs3)nc(N)c2C#N)c(C)n1 | -0.397%
40 | Cc1nc(N2CCC(C(O)c3nccn3C)CC2)c2sccc2n1 (centres undefined) | 35.8%
41 | Cc1nn(C)c2nc(-c3ccccn3)nc(NCCCOC(C)C)c12 | -0.266%
42 | Cc1ccc(S(N)(=O)=O)cc1C(=O)N1C[C@@H](CN(C)C)[C@@H](CO)C1 | -5.13%
43 | CCc1nnc(SCC(=O)N2CCc3[nH]nc(C4CCC4)c3C2)o1 | -2.31%
44 | CCNc1ncc(C(=O)NC(CCN(C)C)c2ccccc2)cn1 (centres undefined) | 26.8%

Row | Structure (SMILES) | cytotoxicity at 70.5 h
45 | CSc1ccc2cc(CN(C)CCc3cn[nH]c3)c(=O)[nH]c2c1 | 2.27%
46 | COCCN1CCCC2(CCN(Cc3nnc(C4CC4)o3)C2)C1=O (centres undefined) | -6.43%
47 | CCc1cc(C(=O)N2CC[C@@H](c3ccc4c(c3)OCO4)[C@H](O)C2)[nH]n1 | 25.7%
48 | O=C(c1ncoc1C1CC1)N1CCCN(CCCc2ccccc2)CC1 | -10.2%
49 | Cc1nc(CN2CCCC(CCc3c(F)cccc3F)C2)c[nH]1 (centres undefined) | -2.43%
50 | O[C@H]1[C@H](n2cc(-c3ccccc3)nn2)c2ccccc2C12CCNCC2 | 2.04%
51 | Cc1cc(C(=O)N2CCC3(CCCN(CC4CC4)C3=O)C2)c(C)n1C (centres undefined) | -2.9%
52 | CN(CCO)C(=O)c1coc(CN2CCN(c3ccccc3F)CC2)n1 | -7.76%
53 | CCOCCn1nc(C)cc1C(=O)N1CCN(C(C)C)C(CC)C1 (centres undefined) | -8.86%
54 | CC(=O)N1CCCn2nc(CNS(=O)(=O)c3cc(C)cs3)cc2C1 | -4.2%
55 | CC(C)c1cc(NCC(O)CO)n2nccc2n1 (centres undefined) | -0.638%
56 | CSCCCN1CCn2nc(CNC(C)=O)cc2C1 | 14.2%
57 | OCCC1CN(C2CCC2)CCN1C1CCCC1 (centres undefined) | -6.56%
58 | O=C(O)C(c1ccc2c(c1)OCO2)N1CCC(C(=O)N2CCCC2)CC1 (centres undefined) | -2.61%
59 | CC(C)CN1CCCn2nc(CNC(=O)CCN)cc2C1 | -6.27%
60 | Cc1cc(N(C)Cc2noc(C)n2)n2nc(C)c(C)c2n1 | -8.45%
61 | CCc1ccccc1CN1CC[C@@H](NC(=O)c2cccnc2)[C@H](O)C1 | 1.15%
62 | O=C(CCc1cc2n(n1)CCN(Cc1ncc[nH]1)C2)N1CCCC1 | 2.55%
63 | Cc1[nH]nc(CCC(=O)N2CCCC(OCc3cccnc3)C2)c1C (centres undefined) | 1.55%
64 | CCCn1cc(C(=O)N(C)Cc2nc(-c3ccccn3)no2)c(C)n1 | -8.48%
65 | CCn1c(C2CCCN(Cc3nccn3CCOC)C2)nn(C)c1=O (centres undefined) | -11.9%
66 | CC1CCN(Cc2cnc(S(=O)(=O)CC3CC3)n2CC2CCCO2)CC1 (centres undefined) | 11.8%

Row | Structure (SMILES) | cytotoxicity at 70.5 h
67 | COCc1ncc(CN2CCC(Oc3ccccc3OC)CC2)cn1 | -10.9%
68 | CC(C)c1cc(N2CCC(CCC(=O)NC3CC3)CC2)n2nccc2n1 | -10.7%
69 | N#Cc1ccccc1C(=O)N1CCC2(CC(=O)NC2=O)C1 (centres undefined) | 15.7%
70 | Cc1cc(F)ccc1OC1(C(=O)O)CCN(Cc2cccnc2N)CC1 | 0.105%
71 | C[C@@H]1CN(C(=O)c2ccc(C#N)nc2)CC[C@@]1(O)C1CCOCC1 | -9.58%
72 | CN1N=C(C(=O)N2CCCC(CCc3c(F)cccc3F)C2)CCC1=O (centres undefined) | -8.44%
73 | CN(C)C(=O)CCC(=O)NCc1cccnc1-n1cnc2ccccc21 | -8.79%
74 | CN(C)C(C(=O)N1CCC(N2CCSCC2)CC1)c1ccccc1F (centres undefined) | -3.23%
75 | CCc1cnc(N2CCC(=O)N(CC3CC3)C(C(C)C)C2)nc1 (centres undefined) | 8.36%
76 | Cn1cccc1CCC(=O)N1CCC2(CC1)c1ccccc1CC2O (centres undefined) | -12.2%
77 | Cc1cc(C(=O)N2CCC(c3nccn3CCCN(C)C)CC2)no1 | 0.885%
78 | COc1ccccc1Oc1ncccc1CNC(=O)[C@@H](C)NC(C)=O | -0.828%
79 | Cc1occc1C(=O)N1CCC2(CCCN(CC3CCC3)C2=O)C1 (centres undefined) | -4.3%
80 | CSc1cccc(CNC(=O)C2CC(=O)N(CCN(C)C)C2)c1 (centres undefined) | 4.55%
81 | COc1cc(C)c(CN2CCC3(CC2)C(C(=O)O)CC(=O)N3C)cc1C (centres undefined) | 3.6%
82 | O=C(c1ccc(C2CCCO2)s1)N1Cc2ccccc2C1 (centres undefined) | 0.527%
83 | COc1ccc(NC(=O)CCC2CCCN(Cc3ncon3)C2)c(C)c1 (centres undefined) | -4.69%
84 | COc1ccc(OC)c(C2CCN(Cc3nc(C)n4ccccc34)C2)c1 (centres undefined) | -12.6%
85 | O=C(c1cncc(N2CCC3(CCNCC3)CC2)n1)N1CCCC1 | 12.4%
86 | COc1ccccc1C1CNC(=O)c2nc(-c3cnn(C)c3)[nH]c2C1 (centres undefined) | -7.47%
87 | O=C1OC2(CCNCC2)CN1CC(=O)N1CCCC1c1ccco1 (centres undefined) | -9.95%
88 | Cc1nc[nH]c1CN1CCN(C(=O)c2cccs2)[C@H]2CS(=O)(=O)C[C@H]21 | -8.73%

Row | Structure (SMILES) | cytotoxicity at 70.5 h
89 | Cc1ccsc1[C@@H]1CCN(C(=O)c2cc3ccccc3[nH]2)C[C@H]1O | 0.623%
90 | O=C(O)C1(Cc2ccccc2Cl)CCN(c2ncccc2F)CC1 | -6.72%
91 | Cc1cnn(C(C)C2CC2)c1NC(=O)c1ccncc1 (centres undefined) | -8.36%
92 | CN(C)C(=O)CN1C[C@@H]2CC[C@H](C1)N(C(=O)Cc1ccccc1Cl)C2 | 8.11%
93 | CCCNC(=O)c1ccc2c(c1)C(=O)N(CC(C)C)C2=O | -1.77%
94 | CSCCCN1CC[C@@H](NC(=O)c2cnccn2)[C@H](O)C1 | -10.8%
95 | CC(C)(C)N1CC(C(=O)N2CCN(CCn3cccc3)CC2)CC1=O (centres undefined) | -2.66%
96 | CSCC(=O)N1CCC2(CC1)c1ccccc1CC2O (centres undefined) | 16.5%
97 | COC(=O)C1CCN(C(=O)c2ccc(NS(C)(=O)=O)c(C)c2)CC1 | -9.09%
98 | CCCN1CC(C(=O)Nc2ccccn2)CC1=O (centres undefined) | -5.78%
99 | COC(=O)C1CCN(C(=O)c2ccc(N(C)S(C)(=O)=O)c(C)c2)CC1 | -10.1%
100 | Cc1cnc(C)c(N2CCN(Cc3ccc(-c4cc[nH]n4)o3)CC2)n1 | -12.4%
101 | CCN(c1ccc(C(=O)N2CCCC2)cc1)S(=O)(=O)CC | -10.8%
102 | CCC(NC(=O)C1CCN(S(=O)(=O)N(C)C)CC1)c1ccc(C)c(C)c1 (centres undefined) | -5.81%
103 | CCC(C(=O)NCc1ccncc1)N(c1ccc(OC)cc1)S(C)(=O)=O (centres undefined) | -4.69%
104 | CN1CCC(Oc2ccc(NC(=O)c3cccc(Cl)c3)cc2)CC1 | -3.56%
105 | CCC(C(=O)NC)N(c1cccc(C)c1)S(C)(=O)=O (centres undefined) | 11.9%
106 | CC(C)(N)CN1CCC(c2nnc(CN3CCCC3)n2C2CC2)CC1 | -0.439%
107 | CCC(=O)N1CCC(c2nnc(Cn3cncn3)n2C2CC2)CC1 | 6.31%
108 | CCCS(=O)(=O)N1CCN(c2ccnc(N3CCCC3)n2)CC1 | -7.03%
109 | COc1ccc(NC(=O)Cn2nc(C)c(C)cc2=O)cc1OC | 12.7%
